Results on five molecules are retold here after patent publication US20180163221A1, “TRANSGENIC PLANTS EXPRESSING TYPE 2C PROTEIN PHOSPHATASE ABSCISIC ACID (PP2CABA) PROTEINS AND USES THEREOF” (Academia Sinica, priority 2016, published 2018).

Data set [1] relates to genes essential for lignin and suberin biosynthesis. Kind of data set: Quantitative RT-PCR of lignin and suberin biosynthesis genes in roots of ABA-treated WT rice. In kind it is in vivo, Oryza sativa. The conditions noted are these: ABA 24 hours, except PAL and CAD. An excerpt: FIG. 9A to FIG. 9B include diagrams showing that ABA and PP2CABA up-regulating the expression of genes essential for lignin and suberin biosynthesis. […] Total RNA was purified from roots and subjected to quantitative RT-PCR analysis using gene specific primers.
Total RNA was purified from rice tissues using Trizol reagent (Invitrogen) and treated with RNase-free DNase I (Promega). The DNase-digested RNA sample was used for reverse transcription by Superscript III reverse transcriptase (Invitrogen). Samples, which served as cDNA stocks for PCR analysis, were stored at −70° C. RT-PCR analysis was performed in a 50-μl solution containing 5-μl cDNA stock using Taq DNA polymerase (Viogene). RT-PCR products were fractionated in a 1.5% agarose gel and visualized by ethidium bromide staining. All RT-PCR analyses were performed from at least two batches of RNA samples with similar results. For quantitative RT-PCR analyses, 5-μl of cDNA was mixed with primers and the 2× Power SYBR Green PCR Master Mix reagent (Roche) and applied to an ABI 7500 Real-Time PCR system (Applied Biosystems). The quantitative variation between different samples was evaluated by the Δ-Δ cycle threshold method, and the amplification of ubiquitin 5 was used as an internal control to normalize all data.

Data set [2] has as its system PP2CABA expression in roots. Kind of data set: Quantitative RT-PCR of PP2CABA expression in roots of ABA-treated rice seedlings. In kind it is in vivo, Oryza sativa. The conditions noted are these: various concentrations of ABA, 24 hours. Here is the method:
FIG. 3A to FIG. 3D include diagrams showing plants have higher PP2CABA expression under induction by ABA and abiotic stress and are expressed in meristematic tissues. […] Ten-day-old rice seedlings were treated with 5 μM ABA, 200 mM NaCl, dehydration on tissue papers, or 4° C. for 3 hours. Total RNAs were purified from shoots and roots, and subjected to quantitative RT-PCR analysis using gene specific primers. […] Ten-day-old WT rice seedlings were treated with various concentrations of ABA for 24 hours. Total RNAs were purified from roots, and subjected to quantitative RT-PCR analysis using PP2CABA-specific primers. […] Recombinant GST-PP2CABA, GST-PP2CABA (D100A), GST-ABI2, and GST proteins were expressed in E. coli, purified and reacted with a phosphor peptide substrate, RRApTVA, and phosphatase activities were determined by measuring released free phosphate. […]
Total RNA was purified from rice tissues using Trizol reagent (Invitrogen) and treated with RNase-free DNase I (Promega). […] For quantitative RT-PCR analyses, 5-μl of cDNA was mixed with primers and the 2× Power SYBR Green PCR Master Mix reagent (Roche) and applied to an ABI 7500 Real-Time PCR system (Applied Biosystems). The quantitative variation between different samples was evaluated by the Δ-Δ cycle threshold method, and the amplification of ubiquitin 5 was used as an internal control to normalize all data.

In data set [3] the test system is rice seedlings. Kind of data set: Lateral root growth and root diameter of rice seedlings treated with ABA. In kind it is in vivo, Oryza sativa. The conditions noted are these: 1 μM ABA. Here is the method: FIG. 5A to FIG. 5B include photos showing plants have lower LR to PR ratio under induction of ABA and expression of PP2CABA. […] Ten-day-old seedlings of segregated wild type (WT) or pp2caba homozygous mutant were treated with (+) or without (−) 1 μM ABA for 3 days. Upper panel: morphology of roots. Lower panel: elongation of LR in boxed area (1 cm above the root tip) of roots in upper panel. LRP (marked by arrowheads) were initiated but not elongated in WT in the presence of ABA. […] Upper panel: morphology of roots. Lower panel: elongation of LR in boxed area (2 cm above the root tip) of roots in upper panel. LRP (marked by arrowheads) were initiated but not elongated in PP2CABA-overexpressing transgenic rice. S: seminal roots. C: crown roots.
The japonica rice (Oryza sativa cv Tainung 67) was used in this study. Plasmids were introduced into Agrobacterium tumefaciens strain EHA105, and rice transformation was performed as described (Chen et al., J Biol Chem, 277:13641 (2002)). The PP2CABA mutant seeds were obtained from the Taiwan Rice Insertional Mutant (TRIM) library (Hsing et al., Plant Molecular Biology, 63:351 (2007)). For hydroponic culture of rice seedlings, seeds were sterilized with 3% NaOCl for 30 minutes, washed extensively with distilled water, and germinated in petri dishes with wetted filter papers at 37° C. in the dark. After 48 h of incubation, germinated seeds were cultivated in Yoshida solution (Yoshida et al., International Rice Research Institute, 3 (1976)). The culture solution was replaced with fresh solution every 2 days. For observation of root growth in glass tube with phytagel, sterilized rice seeds were germinated on the surface of plate with Yoshida solution with 0.3% phytagel without sugar in the dark at 28° C. for about 48 hours. The germinated seedlings were then transplanted to glass tubes, which were 22 cm in height and 4.5 cm in diameter, and each filled with 150 ml Yoshida solution with 0.3% phytagel without sugar. 6 cm plastic dish was used to cover the glass tube and sealed by micropore tape to allow light penetration and gas exchange and prevent the medium from becoming contaminated by external microbes. Seedlings were grown under a 14-h-light/10-h-dark cycle in a 28° C. chamber.

Data set [4] relates to rice seedlings. To be noted: Chen et al. 2015; cited from earlier work.
Another data set has as its system rice roots. The experiment in a line: Histochemical staining of root sections for lignin (acriflavine) and suberin (fluorol yellow 088). In kind it is in vivo, Oryza sativa. To be noted: 1 μM ABA, 3 days. As to the method: FIG. 10A to FIG. 10B include photos showing ABA and PP2CABA enhance the accumulation of lignin and suberin in cell walls of root peripheral layers and increase the root diameter. […] 1 μM ABA was added and seedlings were cultured for another 3 days. […] Roots at 1 cm above the apex were cross-sectioned and stained with acriflavine for lignin and fluorol yellow 088 for suberin. F, fluorescence image; T, transmission image; EP, epidermis; EX, exodermis; SC, sclerenchyma; CO, cortex. Scale bars=10 μm.
Methonal fixed roots were embedded in 5% agar and cut into 100 μm cross sections using a vibratome (DOSAKA DTK-1000). To check for autofluorescence, sections were viewed under a Zeiss Axiolmager Z1 fluorescence microscope with UV illumination using excitation filter G 365, chromatic beam splitter FT 395, and barrier filter LP 420. To check for lignin distribution, sections were stained with Acriflavine as described (Rocha et al., Front Plant Sci, 5:102 (2014)). Sections were imaged with a Zeiss LSM 510 META confocal microscope using a 488 nm laser line for excitation and a 505 to 550 nm band pass filter for emission. To check for suberin lamellae, sections were stained with Fluorol Yellow 088 as described (Brundrett et al., Biotech Histochem, 66:111 (1991); Landgraf et al., Plant Cell, 26:3403 (2014)). […]

The next data set relates to PP2CABA promoter. Kind of data set: GUS staining of transgenic rice carrying PP2CABA:GUS treated with ABA. The conditions noted are these: 10 μM ABA for 1 day; basal meristem region in root tips, LR primordia and young leaves. In kind it is in vivo, Oryza sativa. As to the method:
(§1) FIG. 3A to FIG. 3D include diagrams showing plants have higher PP2CABA expression under induction by ABA and abiotic stress and are expressed in meristematic tissues. […] Ten-day-old rice seedlings were treated with 5 μM ABA, 200 mM NaCl, dehydration on tissue papers, or 4° C. for 3 hours. Total RNAs were purified from shoots and roots, and subjected to quantitative RT-PCR analysis using gene specific primers. […] Ten-day-old WT rice seedlings were treated with various concentrations of ABA for 24 hours. Total RNAs were purified from roots, and subjected to quantitative RT-PCR analysis using PP2CABA-specific primers. […] Recombinant GST-PP2CABA, GST-PP2CABA (D100A), GST-ABI2, and GST proteins were expressed in E. coli, purified and reacted with a phosphor peptide substrate, RRApTVA, and phosphatase activities were determined by measuring released free phosphate. […] Ten-day-old seedlings of transgenic rice carrying PP2CABA:GUS were treated with (lower panel) or without (upper panel) 10 μM ABA for 1 day and then stained for GUS activity. Arrow indicates young leaves.
Tissues were placed in GUS assay buffer containing (0.1 M NaPO4 buffer pH 7.0, 10 mM EDTA, 0.1% Triton X-100, 0.5 mM potassium ferricyanide pH 7.0, and 1.0 mM X-glucuronide) and incubated overnight at 37° C. Vacuum aspiration was applied during initial 30 minutes. […]

The target in data set [5] is T1, phosphor peptide substrate RRApTVA.
T1 chain: RRATVA

Data set [6] relates to phosphor peptide substrate, RRApTVA. Kind of data set: Phosphatase activity assay of GST fusion proteins (released free phosphate). In kind it is biochemical. The conditions noted are these: recombinant GST fusion protein from E. coli, synthetic phosphopeptide. As to the method: as §1
FIG. 6A to FIG. 6E include diagrams showing PP2CABA having two forms which are translated from the first and the second ATG codons. […] The 2nd ATG encodes the Met at amino acid residue 41. Amino acids 1-24 are putative signal peptide (SP). […] Protein loading is shown by the Ponceau S staining (lower panel). […]

For `CC1=CC(=O)CC(C)(C)[C@@]1(O)/C=C/C(C)=C\C(=O)O` [ABA, abscisic acid], in data set [1], the “expression of lignin and suberin biosynthesis genes” value is “induced”. In addition, the “dose dependence of PP2CABA expression in roots” value in data set [2] is recorded as “increased with ABA concentrations in a dose-dependent manner”. Besides, the “LR growth, WT compared with pp2caba” value in the data set with rice seedlings [3] is “more severely inhibited in WT than in pp2caba mutant”. The “LR growth in WT” value with rice seedlings [3] (3 days, WT seedlings, maturation zones of roots) is “completely inhibited”. The “LR growth in pp2caba” value with rice seedlings [3] (3 days, pp2caba homozygous mutant, maturation zones of roots) is “stunted”. Moreover, the root diameter result in the data set with rice seedlings [3] (both WT and pp2caba) is on record as “enlarged”. Moreover, in the data set on rice seedlings [4], the “ABA concentrations that enhance LR growth” value was not above 0.1 µM and the “ABA concentrations that inhibit LR growth” value is not below 0.2 µM. Besides, in the data set with rice roots, the “accumulation of lignin and suberin in endodermal and exodermal cell layers in roots” value is “enhanced the accumulation of lignin and suberin”. Moreover, the “PP2CABA promoter activity (GUS)” value in the data set with PP2CABA promoter was “induced”.

B1: GST-PP2CABA (protein)
chain: LSQGAEEEEDDGEVRLMGLAGEAAGSPGSGGGFSANGKFSYGYASSPGKRSSMEDFYDTRIDGVDGETVGLFGVFDGHGGARAAEFVKQNLFTNLIKHPKLFSDTKSAIAETYTSTDSELLKAETSHNRDAGSTASTAILVGDRLLVANVGDSRAVICRGGDAIAVSRDHKPDQSDERQRIEDAGGFVMWAGTWRVGGVLAVSRAFGDKLLKQYVVADPEIKEEVVDSSLEFLILASDGLWDVVTNEEAVAMVKPILDSEQAAKKLLQEASQRGSADNITCLVVRFLEQENHLPERPTNDQAS
On to B1, for which the “phosphatase activity (released free phosphate)” value in data set [5] is “GST-PP2CABA fusion protein expressed and purified from E. coli exhibited phosphatase activity”.

B2: GST-PP2CABA(25-327) (protein)
chain: B1 chain
On to B2, for which the “phosphatase activity (released free phosphate)” value in data set [5] is “both of L form and S form of PP2CABA have phosphatase activities”.

B3: GST-PP2CABA: GST-PP2CABA fusion protein expressed and purified from E. coli (protein)
chain: B1 chain
modifications: left off: a dimerising Fc or GST
notes: GST-PP2CABA fusion protein expressed and purified from E. coli
In the case of B3, the phosphatase activity result in data set [6] is recorded as “exhibited phosphatase activity”.

B4: GST-PPCABA(41-327) (protein)
chain: MGLAGEAAGSPGSGGGFSANGKFSYGYASSPGKRSSMEDFYDTRIDGVDGETVGLFGVFDGHGGARAAEFVKQNLFTNLIKHPKLFSDTKSAIAETYTSTDSELLKAETSHNRDAGSTASTAILVGDRLLVANVGDSRAVICRGGDAIAVSRDHKPDQSDERQRIEDAGGFVMWAGTWRVGGVLAVSRAFGDKLLKQYVVADPEIKEEVVDSSLEFLILASDGLWDVVTNEEAVAMVKPILDSEQAAKKLLQEASQRGSADNITCLVVRFLEQENHLPERPTNDQAS
Regarding B4, the phosphatase activity result in data set [6] is listed as “have phosphatase activities”. Moreover, the “phosphatase activity (released free phosphate)” value in data set [5] is “both of L form and S form of PP2CABA have phosphatase activities”.
